Test results taken from patent publication US9598387B2 (Southern Research Institute, priority 2012, dated 2017).

Legend:
[1] = biological target: T1, human D3 dopamine receptor (Homo sapiens (Human), UniProt P35462); assay: Radioligand binding (125I-IABN competition), D3; conditions: for Ki: 125I-IABN competition, HEK cell membranes expressing human D3; for D2/D3 (D3 selectivity ratio, D2 Ki/D3 Ki): calculated D2 Ki/D3 Ki
Experimental: (§1) The affinities of the target compounds were determined using radioligand binding experiments. […] Competition curves were modeled for a single site. Data from competition dose-response curves were analyzed using Tablecurve program (Jandel). IC50 values were converted to equilibrium dissociation constants (Ki values) using the Cheng and Prusoff correction.

[2] = biological target: T1, human D3 dopamine receptor; assay: Whole Cell Adenylyl Cyclase Assay, D3; type: cell-based; conditions: inhibition of forskolin (100 μM) stimulated cAMP, normalized to quinpirole; compound conc ≥10× Ki (per compound); mean ± S.E.M.
Experimental: (§2) The intrinsic activity of the compounds was evaluated by determining their ability to inhibit forskolin-dependent (100 μM) stimulation of adenylyl cyclase activity using a whole cell assay. A whole cell-cyclic AMP accumulation assay was performed with stably transfected HEK cells expressing human D2 or D3 dopamine receptors. This assay is an adaptation of an earlier published method (Su et al., Cyclic Nucleotide Res. 1976, 2, 257-285). Details regarding this method have been published (Chu, W. et al. Bioorg. Med. Chem. 2005, 13, 77-87; Taylor, M. et al. Synapse 2010, 64, 251-266). Confluent (60-80%) HEK cells transfected with recombinant D2-like dopamine receptors were grown in DMEM/10% fetal calf serum containing geneticin in […] flasks. The endogenous ATP pool is radioactively labeled by preincubating the cells in serum-free DMEM/25 mM Hepes medium containing 2 μCi/mL of [2,8-^3H]-adenine (20-Ci/mmol) in a 5% CO2 incubator at 37° C. for 75 min. The radioactive medium was removed by aspiration. Serum-free DMEM (5.6 mL) containing 25 mM HEPES, pH 7.4, and 0.1 mM of the phosphodiesterase inhibitor isobutylmethylxanthine was added to the flask. A […] aliquot of cells was removed and added to 50 μL of forskolin (100 μM) and 50 μL of test drug or quinpirole in DMEM-HEPES. The cells were incubated for 20 min at 37° C. (vortexing every 5 min). The reaction was terminated by the addition of 0.5 mL of 10% trichloroacetic acid (w/v) containing 1.0 mM unlabeled cyclic AMP as a recovery standard. Both the [^3H]-cyclic AMP and the [^3H]-ATP fractions were collected following separation using columns of Dowex AG-50W-X4 and alumina. The final yield of [^3H]-cyclic AMP is corrected for column recovery of unlabeled cyclic AMP determined spectrophotometrically (OD259). The results are reported as percent conversion of [^3H]-ATP into [^3H]-cyclic AMP. The values for the percent inhibition are reported as the actual percent of inhibition of the ^3H-cAMP accumulation relative to the assay performed in the absence of a test compound, minus basal activity. […] The percent maximum response is the value for the inhibition normalized to the value for the full agonist quinpirole.

[3] = biological target: human D2 dopamine receptors (Homo sapiens (Human), UniProt P14416); assay: Whole Cell Adenylyl Cyclase Assay, D2; type: cell-based; conditions: inhibition of forskolin (100 μM) stimulated cAMP, normalized to quinpirole; compound conc ≥10× Ki (per compound); mean ± S.E.M.
Experimental: as §2

human D2 receptors = human D2 receptors (Homo sapiens (Human), UniProt P14416); assay: D2 Mitogenesis Functional Assay (3H-thymidine uptake, CHOp-D2 cells); type: cell-based; conditions: for Emax at 10 µM: % maximum stimulation vs quinpirole (100%), read-out: D2 Agonist Emax; for Emax at 10 µM / D2 Antagonist Imax: at 10 μM; for D2 Antagonist Imax: inhibition of quinpirole stimulation of mitogenesis; for IC50: read-out: D2 Antagonist IC50
Experimental: (§3) These assays are based on ^3H-thymidine uptake by cells that are proliferating.
CHO cells expressing human D2 receptors (CHOp-D2 cells) were maintained in alpha-MEM with 10% FCS, 0.05% pen-strep, and 200 μg/mL of G418. […] The cells were incubated at 37° C. in alpha-MEM with 10% FCS. After 48-72 hours, the cells were rinsed twice with serum-free alpha-MEM and incubated for 24 hours at 37° C. Serial dilutions of test compounds were made by the Biomek robotics system in serum-free alpha-MEM. In the functional assay for agonism, the medium was removed and replaced with 100 μL of test compound in serum-free alpha-MEM. In the antagonist assay, the serial dilution of the putative antagonist test compound was added in 90 μL (1.1× of final concentration) and 300 nM quinpirole (30 nM final) was added in […]. After another 24-hour incubation at 37° C., 0.25 μCi of [^3H]thymidine in alpha-MEM supplemented with 10% FCS was added to each well and the plates were further incubated for 2 hours at 37° C. The cells were trypsinized by addition of 10× trypsin solution (1% trypsin in calcium-magnesium-free phosphate-buffered saline) and the plates were filtered and counted as usual. Quinpirole was run as an internal control and dopamine was included for comparative purposes. Butaclamol was run as the standard antagonist.

D3R [4] = biological target: T2, D3R (Homo sapiens (Human), UniProt P35462); assay: D3 Mitogenesis Functional Assay (3H-thymidine uptake, CHOp-D3 cells); type: cell-based; conditions: for Emax at 10 µM: % maximum stimulation vs quinpirole (100%), read-out: D3 Agonist Emax; for D3 Antagonist Imax: inhibition of quinpirole stimulation of mitogenesis; for IC50: read-out: D3 Antagonist IC50; for EC50: CHOp-D3 cells, stimulation of mitogenesis, read-out: D3 Agonist EC50
Experimental: as §3
CHO cells expressing human D3 receptors (CHOp-D3 cells) were maintained in alpha-MEM with 10% fetal bovine serum (FBS, Atlas Biologicals), 0.05% pen-strep, and 200 μg/ml of G418. […] The cells are incubated at 37° C. in alpha-MEM with 10% FBS. After 48-72 hours, the cells are rinsed twice with serum-free alpha-MEM and incubated for 24 hours at 37° C. Serial dilutions of test compounds were made by the Biomek robotics system in serum-free alpha-MEM. In the functional assay for agonism, the medium is removed and replaced with 100 μL of test compound in serum-free alpha-MEM. In the antagonist assay, the serial dilution of the putative antagonist test compound was added in 90 μL (1.1× of final concentration) and 300 nM quinpirole (30 nM final) was added in 10 uL. After another 16-hour incubation at 37° C., 0.25 μCi of [^3H]thymidine in alpha-MEM supplemented with 10% FBS was added to each well and the plates were further incubated for 2 hours at 37° C. The cells were trypsinized by addition of 10× trypsin solution (1% trypsin in calcium-magnesium-free phosphate-buffered saline) and the plates were filtered and counted as usual. Quinpirole was run as an internal control and dopamine was included for comparative purposes. Butaclamol was run as the standard antagonist. Data were analyzed using GraphPAD Prism and agonist potency was expressed as EC50 values or % stimulation and antagonist potency was expressed as IC50 values. In these assays, based on the % maximum stimulation as compared to the standard agonist quinpirole (100%) the compounds were classified into following categories: ≧90% full agonist; 70-90% partial to full agonist; <70% partial agonist; 0-20% potential antagonist.

[5] = biological target: human D2-long dopamine receptor (Homo sapiens (Human), UniProt P14416); assay: Radioligand binding (125I-IABN competition), D2; conditions: HEK cell membranes expressing human D2-long
Experimental: as §1

D3R [6] = biological target: T2, D3R; assay: β-Arrestin Recruitment Assay, U2OS DRD3; type: cell-based; conditions: for IC50: antagonist vs EC80 8 nM PD128907, U2OS DRD3 cells, read-out: D3 IC50; for D2 IC50/D3 IC50: ratio of β-arrestin IC50 values
Experimental: (§4) Antagonist potency of the compounds against agonist induced recruitment of β-arrestin by D3R and D2LR was measured using DiscoverRx PathHunter eXpress kits. […] After incubation at 37° C. for 90 min, the DiscoveRx detection reagent was added, the plates were incubated at room temperature for 60 min and the luminescence was measured on a Synergy 4 plate reader (BioTek). The data were plotted and the agonist EC80 values were calculated using GraphPad Prism software. For antagonist activity, the cells were plated as described above and treated with multiple concentrations (starting from 500 nM, half log dilution, 10 dose points) of the test compounds in Plating Reagent with 0.1% DMSO.

D2LR = D2LR (Homo sapiens (Human), UniProt P14416); assay: β-Arrestin Recruitment Assay, CHO-K1 DRD2L; type: cell-based; conditions: antagonist vs EC80 6 nM Pergolide, CHO-K1 DRD2L cells; read-out: D2 IC50
Experimental: as §4

Chain of human D2 dopamine receptors (P14416 whole entry): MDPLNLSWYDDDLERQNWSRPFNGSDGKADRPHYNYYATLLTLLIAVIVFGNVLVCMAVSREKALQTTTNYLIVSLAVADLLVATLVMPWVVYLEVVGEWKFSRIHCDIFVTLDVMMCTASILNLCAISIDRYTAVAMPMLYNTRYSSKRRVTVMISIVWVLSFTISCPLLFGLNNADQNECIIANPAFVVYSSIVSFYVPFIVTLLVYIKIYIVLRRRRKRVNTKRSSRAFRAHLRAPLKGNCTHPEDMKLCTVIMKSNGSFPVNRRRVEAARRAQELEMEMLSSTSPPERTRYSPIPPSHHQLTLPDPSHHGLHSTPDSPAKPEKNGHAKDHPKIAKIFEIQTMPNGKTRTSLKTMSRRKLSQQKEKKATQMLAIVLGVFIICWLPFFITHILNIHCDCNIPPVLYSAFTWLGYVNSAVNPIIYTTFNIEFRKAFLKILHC
Chain of human D2 receptors (P14416 whole entry): as above
Chain of D2LR (P14416 whole entry): as above
Chain of human D2-long dopamine receptor (P14416 whole entry): as above
T2 sequence (P35462 whole entry): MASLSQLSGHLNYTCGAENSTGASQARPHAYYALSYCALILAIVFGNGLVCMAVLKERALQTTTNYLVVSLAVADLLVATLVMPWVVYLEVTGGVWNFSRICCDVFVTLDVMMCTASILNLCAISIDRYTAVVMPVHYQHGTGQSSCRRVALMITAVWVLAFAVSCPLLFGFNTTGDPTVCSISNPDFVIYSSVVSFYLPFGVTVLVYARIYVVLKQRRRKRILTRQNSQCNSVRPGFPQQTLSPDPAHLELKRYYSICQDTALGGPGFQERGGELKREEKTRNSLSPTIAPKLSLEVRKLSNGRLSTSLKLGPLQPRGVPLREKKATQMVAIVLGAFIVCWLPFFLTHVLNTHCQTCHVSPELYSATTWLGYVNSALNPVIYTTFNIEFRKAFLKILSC
T1 sequence (P35462 whole entry): as above

Row | SMILES | Ki [1] [nM] | D2/D3 (D3 selectivity ratio, D2 Ki/D3 Ki) [1] | D3 Cyclase % Inhibition Normalized [2] [%] | D2 Cyclase % Inhibition Normalized [3] [%] | Emax at 10 µM (human D2 receptors) [%] | D2 Antagonist Imax (human D2 receptors) [% at 10 μM] | IC50 (human D2 receptors) [nM] | Emax at 10 µM (D3R [4]) [%] | D3 Antagonist Imax (D3R [4]) [%] | IC50 (D3R [4]) [nM] | Ki [5] [nM] | IC50 (D3R [6]) [nM] | D2 IC50/D3 IC50 (D3R [6]) | IC50 (D2LR) [nM] | EC50 (human D2 receptors; CHOp-D2 cells, stimulation of mitogenesis, read-out: D2 Agonist EC50) [nM] | EC50 (D3R [4]) [nM]
1 | O=C(NCCCCN1CCN(c2cccc(Cl)c2Cl)CC1)N1CCN(c2ccccc2)CC1 [Compound 3, N-(4-(4-(2,3-Dichlorophenyl)piperazin-1-yl)butyl)-4-phenylpiperazine-1-carboxamide] | 0.39 ± 0.1 | 54 | 66.4 ± 16.4 | 61.0 ± 4.5 | < 20 | 91.0 | 14.6 ± 5.5 | < 20 | 93.1 | 3.43 ± 0.29 | 21 ± 2.4 | – | – | – | – | –
2 | Cc1cc(N2CCN(CCCCNC(=O)N3CCN(c4ccccc4)CC3)CC2)nc(C(C)(C)C)n1 [Compound 5, N-(4-(4-(2-(tert-Butyl)-6-methylpyrimidin-4-yl)piperazin-1-yl)butyl)-4-phenylpiperazine-1-carboxamide] | 2.7 ± 0.1 | 136 | 73.4 ± 11.0 | 54.5 ± 4.5 | – | – | – | – | – | – | 366 ± 18 | 3.86 ± 2.51 | 97 | 376 ± 31 | – | –
3 | CC(C)(C)c1nc(N2CCN(CCCCNC(=O)N3CCN(c4ccccn4)CC3)CC2)cc(C(F)(F)F)n1 [Compound 29, N-(4-(4-(2-(tert-Butyl)-6-(trifluoromethyl)pyrimidin-4-yl)piperazin-1-yl)butyl)-4-(pyridin-2-yl)piperazine-1-carboxamide] | 8 ± 1.6 | 92 | 60.9 ± 4.0 | 21.8 ± 6.6 | < 1 | 99.9 | 232 ± 61 | < 5 | 83.8 | 54.7 ± 9.4 | 740 ± 98.3 | – | – | – | > 10000 | > 10000
4 | CC(C)(C)c1nc(N2CCN(CCCCNC(=O)N3CCN(c4cccnc4)CC3)CC2)cc(C(F)(F)F)n1 [Compound 30, N-(4-(4-(2-(tert-Butyl)-6-(trifluoromethyl)pyrimidin-4-yl)piperazin-1-yl)butyl)-4-(pyridin-3-yl)piperazine-1-carboxamide] | 5.9 ± 1.1 | 77 | 9.1 ± 5.8 | 6.1 ± 7.5 | – | – | – | – | – | – | 455 ± 86 | – | – | – | – | –
5 | CC(C)(C)c1nc(N2CCN(CCCCNC(=O)N3Cc4ccccc4C3)CC2)cc(C(F)(F)F)n1 [Compound 39, N-(4-(4-(2-(tert-Butyl)-6-(trifluoromethyl)pyrimidin-4-yl)piperazin-1-yl)butyl)isoindoline-2-carboxamide] | 12.2 ± 2 | 64 | 19.8 ± 6.7 | −24.0 ± 7.0 | – | – | – | – | – | – | 778 ± 29.5 | – | – | – | – | –
6 | CC(C)(C)c1nc(N2CCN(CCCCNC(=O)N3CCC(c4ccccc4)CC3)CC2)cc(C(F)(F)F)n1 [Compound 48, N-(4-(4-(2-(tert-Butyl)-6-(trifluoromethyl)pyrimidin-4-yl)piperazin-1-yl)butyl)-4-phenylpiperidine-1-carboxamide] | 11 ± 2.4 | 147 | 64.3 ± 10.4 | – | – | – | – | < 5 | 81.2 | 2000 ± 480 | 1620 ± 402 | 28.1 ± 4.9 | >18 | > 500 | – | > 10000
7 | Cc1cc(N2CCN(CCCCNC(=O)N3CCC(n4c(=O)[nH]c5ccccc54)CC3)CC2)nc(C(C)(C)C)n1 [Compound 52, N-(4-(4-(2-(tert-Butyl)-6-methylpyrimidin-4-yl)piperazin-1-yl)butyl)-4-(2-oxo-2,3-dihydro-1H-benzo[d]imidazol-1-yl)piperidine-1-carboxamide] | 7.3 ± 1.6 | 93 | 11.6 ± 3.1 | −5.9 ± 5.4 | – | – | – | – | – | – | 680 ± 135 | – | – | – | – | –
8 | O=C(NCCCCN1CCN(c2ccnc3ccccc23)CC1)C1CCC(c2ccccc2)CC1 (centres unmarked) [Compound 104, 4-Phenyl-N-(4-(4-(quinolin-4-yl)piperazin-1-yl)butyl)cyclohexanecarboxamide] | 35.3 ± 4.8 | 146 | 53.4 ± 13.0 | – | – | – | – | – | – | – | 5160 ± 822 | 33.7 ± 14.3 | >15 | > 500 | – | –
9 | CN(C)Cc1cccc2nc(C(=O)NCCCCN3CCN(c4cc(C(F)(F)F)nc(C(C)(C)C)n4)CC3)cn12 [Compound 121, N-(4-(4-(2-(tert-Butyl)-6-(trifluoromethyl)pyrimidin-4-yl)piperazin-1-yl)butyl)-5-((dimethylamino)methyl)imidazo[1,2-a]pyridine-2-carboxamide] | 27.3 ± 3.4 | 11 | – | – | – | – | – | – | – | – | 298 | 28.8 ± 2.7 | 10 | 281 ± 43 | – | –
